Data from the OligoGym collection.
Strand notation (5' to 3'): a small letter for the sugar, then the base; units joined by * are phosphorothioate-linked, units joined directly phosphodiester-linked; [ ] holds rarer units or linkages, { } end groups; capitals alone tell only the bases. HELM strings list units from the 5' end as sugar, base in round brackets, then linkage (d deoxyribose, r ribose, m 2'-O-methyl, p phosphodiester). [sp] = phosphorothioate linkage; d = 2'-deoxy (DNA); m = 2'-O-methyl

Legend:
CTNNB1 [1] = experiment: HEK293-TLR7, 100 nM ASO, then resiquimod
CTNNB1 [2] = experiment: HEK293-TLR8, 100 nM ASO, then resiquimod
LINC-PINT [3] = experiment: HEK293-TLR7, 100 nM ASO, then resiquimod
LINC-PINT [4] = experiment: HEK293-TLR8, 100 nM ASO, then resiquimod

Substance | TLR7 signal (NF-kB luciferase) (% of resiquimod alone) (CTNNB1 [1]) | TLR8 potentiation (NF-kB luciferase) (fold of resiquimod alone) (CTNNB1 [2]) | TLR7 signal (NF-kB luciferase) (% of resiquimod alone) (LINC-PINT [3]) | TLR8 potentiation (NF-kB luciferase) (fold of resiquimod alone) (LINC-PINT [4])
RNA1{m(A)[sp].m(C)[sp].m(C)[sp].m(A)[sp].m(C)[sp].d(C)[sp].d(C)[sp].d(A)[sp].d(C)[sp].d(T)[sp].d(T)[sp].d(G)[sp].d(G)[sp].d(C)[sp].d(A)[sp].m(G)[sp].m(A)[sp].m(C)[sp].m(C)[sp].m(A)}$$$$ | 63.4 | 1.71 |  | 
RNA1{m(A)[sp].m(C)[sp].m(C)[sp].m(C)[sp].m(A)[sp].d(A)[sp].d(G)[sp].d(G)[sp].d(C)[sp].d(A)[sp].d(T)[sp].d(C)[sp].d(C)[sp].d(T)[sp].d(G)[sp].m(G)[sp].m(C)[sp].m(C)[sp].m(A)[sp].m(U)}$$$$ | 70.7 | 2.29 |  | 
RNA1{m(A)[sp].m(C)[sp].m(C)[sp].m(C)[sp].m(A)[sp].d(C)[sp].d(T)[sp].d(T)[sp].d(G)[sp].d(G)[sp].d(C)[sp].d(A)[sp].d(G)[sp].d(A)[sp].d(C)[sp].m(C)[sp].m(A)[sp].m(U)[sp].m(C)[sp].m(A)}$$$$ | 65.8 | 2.74 |  | 
RNA1{m(A)[sp].m(C)[sp].m(U)[sp].m(G)[sp].m(C)[sp].d(A)[sp].d(T)[sp].d(T)[sp].d(C)[sp].d(T)[sp].d(G)[sp].d(G)[sp].d(G)[sp].d(C)[sp].d(C)[sp].m(A)[sp].m(U)[sp].m(C)[sp].m(U)[sp].m(C)}$$$$ | 73.2 | 2.96 |  | 
mA*mA*mA*mG*mU*dC*dA*dA*dA*dA*dA*dG*dA*dA*dA*mA*mA*mC*mU*mG |  |  | 45.6 | 1.62
mA*mA*mA*mU*mG*dT*dC*dC*dT*dG*dG*dC*dC*dC*dT*mC*mA*mC*mU*mG |  |  | 46.5 | 1.45
mA*mC*mC*mC*mU*dT*dC*dT*dC*dT*dC*dT*dG*dG*dT*mC*mC*mC*mA*mU |  |  | 43.4 | 2.55
mA*mG*mC*mC*mG*dA*dA*dC*dA*dG*dA*dA*dG*dG*dA*mG*mC*mG*mU*mC |  |  | 27.7 | 2.54
mA*mG*mU*mU*mU*dA*dT*dA*dG*dA*dT*dT*dT*dC*dA*mA*mG*mU*mA*mG |  |  | 37.6 | 3.06
mA*mU*mG*mA*mC*dA*dT*dT*dT*dC*dG*dT*dG*dG*dC*mU*mC*mC*mU*mA |  |  | 32.5 | 0.88
mC*mA*mA*mG*mC*dC*dC*dC*dA*dG*dC*dG*dT*dT*dC*mC*mU*mC*mC*mG |  |  | 45.2 | 2.74
mC*mA*mC*mC*mC*dT*dT*dC*dT*dC*dT*dC*dT*dG*dG*mU*mC*mC*mC*mA |  |  | 73.3 | 1.85
mC*mA*mC*mU*mG*dT*dA*dT*dT*dT*dT*dA*dT*dT*dA*mC*mA*mG*mA*mA |  |  | 58.1 | 2.67
mC*mA*mU*mC*mC*dC*dT*dT*dC*dT*dG*dC*dT*dG*dC*mC*mA*mA*mG*mC |  |  | 54.3 | 2.95
mC*mC*mA*mU*mC*dC*dC*dT*dT*dC*dT*dG*dC*dT*dG*mC*mC*mA*mA*mG |  |  | 52.6 | 2.38
mC*mC*mC*mU*mA*dA*dT*dG*dC*dT*dT*dT*dC*dC*dT*mC*mU*mC*mC*mA |  |  | 58.4 | 2.7
mC*mC*mC*mU*mU*dC*dT*dC*dT*dC*dT*dG*dG*dT*dC*mC*mC*mA*mU*mC |  |  | 49.6 | 2.6
mC*mC*mU*mA*mU*dT*dA*dA*dA*dA*dA*dA*dA*dT*dT*mU*mA*mU*mA*mC |  |  | 109 | 2.19
mC*mC*mU*mU*mC*dT*dC*dT*dC*dT*dG*dG*dT*dC*dC*mC*mA*mU*mC*mC |  |  | 60.9 | 3.01
mC*mC*mU*mU*mC*dT*dG*dC*dT*dG*dC*dC*dA*dA*dG*mC*mC*mC*mC*mA |  |  | 85.6 | 1.45
mC*mU*mC*mU*mC*dT*dG*dG*dT*dC*dC*dC*dA*dT*dC*mC*mC*mU*mU*mC |  |  | 85 | 2.73
mC*mU*mU*mC*mU*dC*dT*dC*dT*dG*dG*dT*dC*dC*dC*mA*mU*mC*mC*mC |  |  | 56.2 | 2.92
mC*mU*mU*mU*mA*dT*dA*dT*dT*dA*dC*dA*dA*dA*dG*mC*mU*mA*mC*mU |  |  | 54.8 | 2.11
mG*mA*mU*mG*mG*dT*dT*dC*dC*dA*dG*dT*dC*dC*dC*mU*mC*mU*mU*mC |  |  | 22.3 | 0.84
mG*mC*mA*mA*mG*dG*dC*dA*dG*dA*dG*dA*dA*dA*dC*mU*mC*mC*mA*mG |  |  | 20 | 1.45

Substance | TLR7 signal (NF-kB luciferase) (% of resiquimod alone) (CTNNB1 [1]) | TLR8 potentiation (NF-kB luciferase) (fold of resiquimod alone) (CTNNB1 [2]) | TLR7 signal (NF-kB luciferase) (% of resiquimod alone) (LINC-PINT [3]) | TLR8 potentiation (NF-kB luciferase) (fold of resiquimod alone) (LINC-PINT [4])
mG*mC*mG*mU*mA*dG*dT*dT*dT*dC*dT*dC*dT*dT*dC*mC*mU*mC*mC*mC |  |  | 27.2 | 1.86
mG*mG*mG*mU*mC*dT*dC*dC*dT*dC*dC*dA*dC*dA*dC*mC*mC*mU*mU*mC |  |  | 21.5 | 0.87
mG*mG*mU*mC*mC*dC*dA*dT*dC*dC*dC*dT*dT*dC*dT*mG*mC*mU*mG*mC |  |  | 20.8 | 1.28
mG*mG*mU*mC*mU*dC*dC*dT*dC*dC*dA*dC*dA*dC*dC*mC*mU*mU*mC*mU |  |  | 23.7 | 1.29
mG*mU*mC*mC*mC*dA*dT*dC*dC*dC*dT*dT*dC*dT*dG*mC*mU*mG*mC*mC |  |  | 22.5 | 1.37
mG*mU*mC*mC*mG*dT*dA*dC*dC*dT*dC*dC*dA*dC*dC*mC*mA*mC*mC*mG |  |  | 22.8 | 1.7
mG*mU*mC*mU*mC*dC*dT*dC*dC*dA*dC*dA*dC*dC*dC*mU*mU*mC*mU*mC |  |  | 25 | 1.98
mG*mU*mU*mC*mA*dG*dT*dC*dA*dG*dA*dT*dC*dG*dC*mU*mG*mG*mG*mA |  |  | 17.5 | 1.55
mU*mA*mU*mU*mC*dA*dT*dA*dT*dT*dT*dT*dT*dA*dT*mU*mU*mC*mA*mG |  |  | 87.1 | 4.47
mU*mC*mC*mC*mA*dA*dC*dT*dC*dT*dT*dC*dT*dA*dA*mC*mU*mC*mG*mU |  |  | 40.8 | 3.7
mU*mC*mC*mC*mA*dT*dC*dC*dC*dT*dT*dC*dT*dG*dC*mU*mG*mC*mC*mA |  |  | 43.1 | 3.95
mU*mC*mU*mC*mU*dC*dT*dG*dG*dT*dC*dC*dC*dA*dT*mC*mC*mC*mU*mU |  |  | 43.8 | 3.68
mU*mC*mU*mC*mU*dG*dG*dT*dC*dC*dC*dA*dT*dC*dC*mC*mU*mU*mC*mU |  |  | 78.2 | 5.44
mU*mC*mU*mG*mG*dT*dC*dC*dC*dA*dT*dC*dC*dC*dT*mU*mC*mU*mG*mC |  |  | 29.4 | 3.36
mU*mG*mA*mC*mA*dA*dA*dA*dC*dA*dA*dT*dA*dA*dT*mA*mA*mC*mA*mG |  |  | 36.7 | 1.31
mU*mG*mA*mC*mA*dT*dT*dT*dC*dG*dT*dG*dG*dC*dT*mC*mC*mU*mA*mC |  |  | 33.6 | 1.73
mU*mG*mA*mU*mG*dA*dT*dG*dC*dT*dT*dG*dC*dA*dG*mG*mA*mG*mG*mC |  |  | 25.5 | 1.18
mU*mG*mC*mU*mA*dT*dT*dC*dA*dT*dA*dT*dT*dT*dT*mU*mA*mU*mU*mU |  |  | 42.4 | 3.01
mU*mG*mG*mC*mG*dT*dA*dG*dT*dT*dT*dC*dT*dC*dT*mU*mC*mC*mU*mC |  |  | 32.8 | 2.48
mU*mG*mU*mU*mU*dC*dC*dC*dC*dG*dG*dA*dG*dA*dG*mC*mA*mA*mU*mG |  |  | 30.9 | 1.62
mU*mU*mA*mG*mC*dT*dC*dC*dT*dT*dG*dC*dC*dT*dC*mG*mU*mU*mC*mC |  |  | 31.7 | 3.43
mU*mU*mC*mU*mC*dT*dC*dT*dG*dG*dT*dC*dC*dC*dA*mU*mC*mC*mC*mU |  |  | 26.2 | 2.83
mU*mU*mG*mG*mC*dC*dT*dG*dT*dG*dG*dA*dT*dG*dC*mU*mU*mU*mG*mU |  |  | 21.4 | 0.75
mU*mU*mU*mA*mU*dA*dT*dT*dA*dC*dA*dA*dA*dG*dC*mU*mA*mC*mU*mU |  |  | 33.7 | 2.71
mU*mU*mU*mG*mA*dA*dA*dT*dT*dC*dA*dG*dA*dA*dG*mA*mU*mU*mU*mG |  |  | 35.1 | 2.57
